According to EP4635500A1, “THERAPEUTIC AGENT FOR BACTERIAL INFECTION” (Sumitomo Pharma Co., Ltd., priority 2022, dated 2024):
Converted amounts (≈) assume the structure as drawn. Read-outs that look alike come from different tables or passages of the source.

Legend:
Assay type in all cases: cell-based
Klebsiella pneumoniae = experiment: MIC and MBC, broth microdilution (Example 4, Table 3); conditions: Klebsiella pneumoniae; for MIC: read-out: MIC
Escherichia coli = experiment: as above; conditions: for MBC: read-out: MBC; for MIC: read-out: MIC
Prevotella spp. = experiment: MIC, agar dilution, anaerobic bacteria (Example 9, Tables 18, 23); conditions: for MIC: (n)=Compound A µg/mL, 0=Compound A alone antibacterial
A. baumannii = experiment: MIC, broth microdilution, 6 strains (Example 6, Table 7); conditions: Acinetobacter baumannii, Carbapenem-resistant, read-out: MIC
[1] = Klebsiella pneumoniae CDC-505 (NDM-1)
[2] = Klebsiella pneumoniae KUB3607 (IMP-1)
[3] = NCTC13440, Klebsiella pneumoniae NCTC13440 (VIM-1)
[4] = ATCCBAA2340, Escherichia coli ATCC BAA-2340 (KPC-3)
[5] = ATCCBAA2469, Escherichia coli ATCC BAA-2469 (NDM-1)
[6] = Escherichia coli NCTC13476 (IMP-1)

C[C@@H](O)[C@H]1C(=O)N2C(C(=O)O)=C(S[C@@H]3CN[C@H](C(=O)N(C)C)C3)[C@H](C)[C@H]12 [MEPM, meropenem]
MIC (Klebsiella pneumoniae; Klebsiella pneumoniae CDC-112 (KPC-3)): 32 µg/mL (≈ 83.4 µM)
MBC (Klebsiella pneumoniae; [1]): 64 µg/mL (≈ 167 µM)
MIC (Klebsiella pneumoniae; [1]): 64 µg/mL (≈ 167 µM)
MBC (Klebsiella pneumoniae; [2]): 8 µg/mL (≈ 20.9 µM)
MIC (Klebsiella pneumoniae; [2]): 8 µg/mL (≈ 20.9 µM)
MBC (Klebsiella pneumoniae; [3]): 64 µg/mL (≈ 167 µM)
MIC (Klebsiella pneumoniae; [3]): 16 µg/mL (≈ 41.7 µM)
MBC (Escherichia coli; [4]): 8 µg/mL (≈ 20.9 µM)
MIC (Escherichia coli; [4]): 4 µg/mL (≈ 10.4 µM)
MBC (Escherichia coli; [5]): 32 µg/mL (≈ 83.4 µM)
MIC (Escherichia coli; [5]): 32 µg/mL (≈ 83.4 µM)
MBC (Escherichia coli; [6]): 8 µg/mL (≈ 20.9 µM)
MIC (Escherichia coli; [6]): 4 µg/mL (≈ 10.4 µM)
MIC (Prevotella spp.; KUB No. 2989 Prevotella histicola): 0.06 µg/mL (≈ 0.156 µM)
MIC (Prevotella spp.; KUB No. 2991 Prevotella intermedia): 0.06 µg/mL (≈ 0.156 µM)
MIC (Prevotella spp.; KUB No. 2992 Prevotella buccae): 0.12 µg/mL (≈ 0.313 µM)
MIC (Prevotella spp.; KUB No. 3005 Prevotella melaninogenica): ≤ 0.03 µg/mL
MIC (Prevotella spp.; KUB No. 6558 Prevotella heparinolytica): 0.06 µg/mL (≈ 0.156 µM)
MIC (Prevotella spp.; KUB No. 6559 Prevotella intermedia): ≤ 0.03 µg/mL
MIC (Prevotella spp.; KUB No. 6560 Prevotella nigrescens): ≤ 0.03 µg/mL
MIC (Prevotella spp.; KUB No. 6561 Prevotella melaninogenica): 0.12 µg/mL (≈ 0.313 µM)
MIC (Prevotella spp.; KUB No. 6563 Prevotella nigrescens): ≤ 0.03 µg/mL
MIC (Prevotella spp.; KUB No. 6564 Prevotella buccae): 0.12 µg/mL (≈ 0.313 µM)
MIC (Prevotella spp.; KUB No. 6565 Prevotella nigrescens): 0.06 µg/mL (≈ 0.156 µM)
MIC (Prevotella spp.; KUB No. 6567 Prevotella melaninogenica): ≤ 0.03 µg/mL
MIC (Prevotella spp.; KUB No. 6568 Prevotella intermedia): 0.06 µg/mL (≈ 0.156 µM)
MIC (Prevotella spp.; KUB No. 6569 Prevotella nanceiensis): 0.5 µg/mL (≈ 1.3 µM)
MIC (Prevotella spp.; KUB No. 6570 Prevotella intermedia): 0.06 µg/mL (≈ 0.156 µM)
MIC (Prevotella spp.; KUB No. 6571 Prevotella denticola): 0.06 µg/mL (≈ 0.156 µM)
MIC (Prevotella spp.; KUB No. 6572 Prevotella melaninogenica): 0.06 µg/mL (≈ 0.156 µM)
MIC (Prevotella spp.; KUB No. 6574 Prevotella oris): ≤ 0.03 µg/mL
MIC (Prevotella spp.; KUB No. 6575 Prevotella nigrescens): ≤ 0.03 µg/mL
MIC (Prevotella spp.; KUB No. 6576 Prevotella intermedia): ≤ 0.03 µg/mL
MIC (Prevotella spp.; KUB No. 6579 Prevotella pallens): 0.06 µg/mL (≈ 0.156 µM)
MIC (Prevotella spp.; KUB No. 6581 Prevotella intermedia): 0.06 µg/mL (≈ 0.156 µM)
MIC (Prevotella spp.; KUB No. 6582 Prevotella melaninogenica): 0.06 µg/mL (≈ 0.156 µM)
MIC (Prevotella spp.; KUB No. 6585 Prevotella baroniae): 0.06 µg/mL (≈ 0.156 µM)
MIC (Prevotella spp.; KUB No. 6587 Prevotella melaninogenica): 0.06 µg/mL (≈ 0.156 µM)
MIC (Prevotella spp.; KUB No. 6588 Prevotella nigrescens): ≤ 0.03 µg/mL
MIC (Prevotella spp.; KUB No. 6589 Prevotella buccae): 0.12 µg/mL (≈ 0.313 µM)
MIC (Prevotella spp.; KUB No. 6590 Prevotella buccae): 0.32 µg/mL (≈ 0.834 µM)
MIC (Prevotella spp.; KUB No. 6591 Prevotella intermedia): 0.06 µg/mL (≈ 0.156 µM)
MIC (Prevotella spp.; KUB No. 6592 Prevotella jejuni): 0.06 µg/mL (≈ 0.156 µM)
MIC (Prevotella spp.; KUB No. 6600 Prevotella intermedia): ≤ 0.03 µg/mL
MIC (Prevotella spp.; KUB No. 6601 Prevotella melaninogenica): 0.12 µg/mL (≈ 0.313 µM)
MIC (Prevotella spp.; KUB No. 6603 Prevotella melaninogenica): 0.12 µg/mL (≈ 0.313 µM)
MIC (Prevotella spp.; KUB No. 6609 Prevotella buccae): 0.12 µg/mL (≈ 0.313 µM)
MIC (Prevotella spp.; KUB No. 6611 Prevotella nigrescens): 0.06 µg/mL (≈ 0.156 µM)
MIC (Prevotella spp.; KUB No. 6612 Prevotella oris): 0.25 µg/mL (≈ 0.652 µM)
MIC (Prevotella spp.; KUB No. 6613 Prevotella buccae): 0.12 µg/mL (≈ 0.313 µM)
MIC (Prevotella spp.; KUB No. 6614 Prevotella intermedia): ≤ 0.03 µg/mL
MIC (Prevotella spp.; KUB No. 6615 Prevotella buccae): 0.06 µg/mL (≈ 0.156 µM)
MIC (Prevotella spp.; KUB No. 6617 Prevotella buccae): 0.06 µg/mL (≈ 0.156 µM)
MIC (Prevotella spp.; KUB No. 6618 Prevotella melaninogenica): 0.06 µg/mL (≈ 0.156 µM)
MIC (Prevotella spp.; KUB No. 6622 Prevotella loescheii): 0.06 µg/mL (≈ 0.156 µM)
MIC (Prevotella spp.; KUB No. 6623 Prevotella nigrescens): ≤ 0.03 µg/mL
MIC (Prevotella spp.; KUB No. 6625 Prevotella melaninogenica): ≤ 0.03 µg/mL
MIC (Prevotella spp.; KUB No. 6626 Prevotella loescheii): ≤ 0.03 µg/mL
MIC (Prevotella spp.; KUB No. 6629 Prevotella bivia): 0.06 µg/mL (≈ 0.156 µM)
MIC (Prevotella spp.; KUB No. 6630 Prevotella nigrescens): ≤ 0.03 µg/mL
MIC (Prevotella spp.; KUB No. 6631 Prevotella jejuni): 0.06 µg/mL (≈ 0.156 µM)
MIC50 (Prevotella spp.; Prevotella spp.): 0.06 µg/mL (≈ 0.156 µM)
MIC90 (Prevotella spp.; Prevotella spp.): 0.12 µg/mL (≈ 0.313 µM)
MICrange (Prevotella spp.; Prevotella spp.): ≤0.03 to 0.5 µg/mL
MIC (Prevotella spp.; Prevotella, KUB No. 6583 Prevotella nonceiensis): 0.12 µg/mL (≈ 0.313 µM)
MIC (Prevotella spp.; Prevotella, KUB No. 6604 Prevotella nonceiensis): 0.25 µg/mL (≈ 0.652 µM)
MIC50 (Prevotella spp.; Prevotella, n=54, combination: Compound A at 4 ug/mL, read-out: MIC50): 0.06 µg/mL
MIC90 (Prevotella spp.; Prevotella, n=54, combination: Compound A at 4 ug/mL, read-out: MIC90): 0.12 µg/mL
MIC (Prevotella spp.; po, KUB No. 6566 Prevotella oralis): ≤ 0.03 µg/mL
MIC (A. baumannii; A. baumannii strain with AMR gene ADC-25, OXA-23, OXA-66, TEM-ID): 64 µg/mL (≈ 167 µM)
MIC (A. baumannii; A. baumannii strain with AMR gene ADC-25, XA-23, OXA-66, strA, strB, sul2, TEM-1D): 64 µg/mL (≈ 167 µM)
MIC (A. baumannii; A. baumannii strain with AMR gene OXA-23, OXA-69, TEM-1D): 16 µg/mL (≈ 41.7 µM)
